Literature values in US11529387B2, “Nutritional supplements and methods of nutritional supplementation affecting global mood state” (Amare Global, priority 2019, dated 2022).

Assays:
[1] = runners, submaximal running intensity, week 8 post-supplementation vs pre-supplementation and vs placebo, p<0.05

In the case of `CC1=C(/C=C/C(C)=C/C=C/C(C)=C/C=C/C=C(C)/C=C/C=C(C)/C=C/C2=C(C)C(=O)[C@@H](O)CC2(C)C)C(C)(C)C[C@H](O)C1=O` [NAX, astaxanthin], the “heart rate (HR) at AT, anaerobic threshold” value [1] is listed as “significantly lower heart rate”, the “heart rate (HR) at AeT, aerobic threshold” value [1] is listed as “significantly lower heart rate” and the “Global Mood State score” value (8 weeks post-supplementation, lower score = more positive mood) is listed as 127+20. The “Global Mood change” value (8 weeks post-supplementation, lower score = more positive mood, p<0.05) was −11%, the Anger sub-scale change (baseline to week 8, NS) was −12% and the Confusion sub-scale change (baseline to week 8, NS) was −28%. For the same molecule, the Tension sub-scale change (baseline to week 8, NS) was −20%, the Vigor sub-scale change (baseline to week 8, NS) was “+5%” and the Depression sub-scale change (baseline to week 8, p<0.05) was −57%. For the same molecule, the Fatigue sub-scale change (baseline to week 8, p<0.05) was −36%.
